Earlier results, collected in patent US20090306452A1, “APPARATUS FOR TREATING A CONTAMINATED MEDIA WITH A SORBENT” (priority 2008, published 2009).

Details: log10 of concentration in octanol / concentration in water; examples of hydrophobic hazardous materials

Compound	Log P
Clc1cc(Cl)cc(C2(CC(Cl)(Cl)Cl)CO2)c1 (stereo not shown) [2-(3,5-dichlorophenyl)-2-(2,2,2-trichloroethyl) oxirane]	about 4
hexafluoromethane	about 2
Clc1cc2oc3c(Cl)cc(Cl)c(Cl)c3c2c(Cl)c1Cl [1,2,3,6,8,9-hexachloro-dibenzofuran]	about 7
c1ccc2c(c1)Oc1ccccc1O2 [dibenzo (1,4) dioxin]	about 4
